In ChEMBL document CHEMBL5244260, “Aldose reductase and protein tyrosine phosphatase 1B inhibitors as a promising therapeutic approach for diabetes mellitus” (Eur J Med Chem, 2020):
Blank lines part the entries; values can stand above or below the compound they belong to.

Key:
[1] = biological target: T1, Tyrosine-protein phosphatase non-receptor type 1 (Homo sapiens, UniProt P18031); test: Inhibition of human PTP1B (1 to 298 residues) expressed in Escherichia coli using FDP as substrate by microplate reader
T1 sequence (P18031 whole entry): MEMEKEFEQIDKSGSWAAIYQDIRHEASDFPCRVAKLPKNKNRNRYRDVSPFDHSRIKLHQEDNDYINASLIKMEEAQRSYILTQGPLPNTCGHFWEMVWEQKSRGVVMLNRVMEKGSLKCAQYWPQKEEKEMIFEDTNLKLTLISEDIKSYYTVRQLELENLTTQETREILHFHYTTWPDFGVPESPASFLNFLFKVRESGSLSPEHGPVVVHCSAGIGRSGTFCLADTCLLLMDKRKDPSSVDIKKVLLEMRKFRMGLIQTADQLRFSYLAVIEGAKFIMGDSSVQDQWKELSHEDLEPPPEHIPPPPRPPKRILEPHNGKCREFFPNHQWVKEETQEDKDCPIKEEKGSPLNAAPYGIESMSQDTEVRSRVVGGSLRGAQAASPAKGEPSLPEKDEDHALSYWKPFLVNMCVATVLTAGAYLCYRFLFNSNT

Homo sapiens [2] = species on record: Homo sapiens; test: Selectivity ratio of IC50 for human PTP1B (1 to 321 residues) to IC50 for human CD45 (564 to […] residues)
[3] = biological target: T1, Tyrosine-protein phosphatase non-receptor type 1; test: Inhibition of human PTP1B (1 to 321 residues) expressed in Escherichia coli using FDP as substrate
[4] = biological target: T1, Tyrosine-protein phosphatase non-receptor type 1; test: Inhibition of PTP1B (unknown origin)
[5] = Inhibition of ALR2 in Sprague-Dawley rat lens using D,L-glyceraldehyde as substrate preincubated for 10 mins in presence of NADPH followed by substrate addition and measured after 5 mins by spectrophotometric assay; assay type: tissue-based
[6] = biological target: T1, Tyrosine-protein phosphatase non-receptor type 1; test: Inhibition of human PTP1B (1 to 411 residues) expressed in Escherichia coli BL21 (DE3) using GNGDpYMPMSPKS as phosphopeptide substrate incubated for 30 mins by malachite green reagent assay
[7] = Inhibition of ALR2 in calf lens using D,L-glyceraldehyde as substrate in presence of NADPH by spectrophotometric assay; assay type: tissue-based, Bos taurus
[8] = biological target: Aldo-keto reductase family 1 member B1 (Homo sapiens, UniProt P15121); test: Inhibition of ALR2 (unknown origin)
[9] = biological target: T1, Tyrosine-protein phosphatase non-receptor type 1; test: Inhibition of PTP1B (unknown origin) assessed as inhibition constant
Homo sapiens [10] = species on record: Homo sapiens; test: Selectivity ratio of Ki for PTP1B (unknown origin) to Ki for TCPTP (unknown origin)
[11] = Inhibition of ALR2 in rat lens using D,L-glyceraldehyde as substrate in presence of NADPH; assay type: tissue-based
[12] = biological target: T1, Tyrosine-protein phosphatase non-receptor type 1; test: Inhibition of PTP1B (unknown origin) using OMFP as substrate by fluorescence assay
[13] = biological target: T2, Receptor-type tyrosine-protein phosphatase C (Homo sapiens, UniProt P08575); test: Inhibition of human CD45 (564 to […] residues) expressed in Escherichia coli using FDP as substrate incubated for 10 min
T2 sequence (P08575 whole entry): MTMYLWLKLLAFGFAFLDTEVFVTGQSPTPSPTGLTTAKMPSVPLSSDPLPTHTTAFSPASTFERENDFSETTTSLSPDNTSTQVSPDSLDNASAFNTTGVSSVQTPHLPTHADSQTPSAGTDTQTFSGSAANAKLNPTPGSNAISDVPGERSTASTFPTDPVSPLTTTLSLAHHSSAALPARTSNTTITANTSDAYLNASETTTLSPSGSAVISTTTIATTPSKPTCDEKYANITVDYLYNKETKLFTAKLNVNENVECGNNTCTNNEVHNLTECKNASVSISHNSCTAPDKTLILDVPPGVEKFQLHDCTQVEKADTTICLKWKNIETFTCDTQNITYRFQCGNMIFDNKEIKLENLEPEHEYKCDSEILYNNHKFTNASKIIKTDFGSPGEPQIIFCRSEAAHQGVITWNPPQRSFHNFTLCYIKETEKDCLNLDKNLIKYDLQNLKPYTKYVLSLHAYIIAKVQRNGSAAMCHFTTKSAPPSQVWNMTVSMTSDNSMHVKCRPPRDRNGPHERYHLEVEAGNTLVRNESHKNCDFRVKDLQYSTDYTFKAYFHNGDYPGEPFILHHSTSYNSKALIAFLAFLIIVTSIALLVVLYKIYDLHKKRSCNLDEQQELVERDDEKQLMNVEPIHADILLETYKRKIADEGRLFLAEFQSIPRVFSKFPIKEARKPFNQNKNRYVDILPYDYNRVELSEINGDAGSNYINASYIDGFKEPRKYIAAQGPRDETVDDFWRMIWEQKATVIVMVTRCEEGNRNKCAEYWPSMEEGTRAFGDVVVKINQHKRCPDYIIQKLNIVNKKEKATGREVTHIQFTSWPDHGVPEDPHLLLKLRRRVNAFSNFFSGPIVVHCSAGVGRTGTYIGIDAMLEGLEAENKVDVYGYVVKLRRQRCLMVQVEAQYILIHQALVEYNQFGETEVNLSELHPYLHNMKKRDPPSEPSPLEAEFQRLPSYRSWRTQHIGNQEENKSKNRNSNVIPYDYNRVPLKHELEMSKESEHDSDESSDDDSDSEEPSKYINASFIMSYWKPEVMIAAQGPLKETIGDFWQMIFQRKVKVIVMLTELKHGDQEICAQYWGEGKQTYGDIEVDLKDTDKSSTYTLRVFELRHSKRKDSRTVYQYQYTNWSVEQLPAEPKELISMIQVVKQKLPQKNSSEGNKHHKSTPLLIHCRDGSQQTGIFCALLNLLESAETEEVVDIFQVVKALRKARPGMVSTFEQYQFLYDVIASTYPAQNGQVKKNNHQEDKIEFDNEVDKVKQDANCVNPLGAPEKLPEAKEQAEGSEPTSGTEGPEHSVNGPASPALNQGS

IC50 [1]: 13 nM
Compound: O=P(O)(O)C(F)(F)c1ccc(C[C@](c2ccc(C(F)(F)P(=O)(O)O)cc2)(c2ccc(F)c(F)c2)n2nnc3ccccc32)cc1

Ratio IC50 (Homo sapiens [2]): 250
IC50 [3]: 40 nM
Compound: O=C(OCc1ccccc1)C(Cc1ccc(C(F)(F)P(=O)(O)O)cc1)(Cc1ccc(C(F)(F)P(=O)(O)O)cc1)C(=O)OCc1ccccc1

IC50 [8]: 60 nM
Compound: Cc1cccc(-c2nn(-c3ccccc3)cc2/C=C2\SC(=S)N(c3ccc(C(=O)NCC(=O)O)cc3)C2=O)c1

IC50 [12]: 500 nM
Compound: CCc1cc(Br)ccc1S(=O)(=O)N(Cc1ccc(C(=O)C(F)(F)P(=O)(O)O)cc1)Cc1ccc(C(=O)C(F)(F)P(=O)(O)O)cc1

IC50 [13]: > 50000 nM
IC50 [3]: 6 nM
Compound: O=C(c1ccccc1)C(Cc1ccc(C(F)(F)P(=O)(O)O)c(Br)c1)c1ccccc1 (stereo not drawn)

IC50 [4]: 90 nM
Compound: CCCCCCCCc1ccc(-n2c(C)ccc2-c2ccc(O[C@@H](Cc3ccccc3)C(=O)O)cc2)cc1

IC50 [13]: > 50000 nM
IC50 [3]: 6 nM
Compound: O=C(c1ccccc1)C(Cc1ccc(C(F)(F)P(=O)(O)O)c(Cl)c1)c1ccccc1 (stereo not drawn)

IC50 [13]: > 50000 nM
IC50 [3]: 6 nM
Compound: O=C(c1ccccc1)C(Cc1ccc(C(F)(F)P(=O)(O)O)cc1)(Cc1ccc(C(F)(F)P(=O)(O)O)cc1)c1ccccc1

Ratio IC50 (Homo sapiens [2]): 250
IC50 [3]: 40 nM
Compound: COC(=O)C(Cc1ccc(C(F)(F)P(=O)(O)O)cc1)(Cc1ccc(C(F)(F)P(=O)(O)O)cc1)C(=O)OCc1ccccc1

Ratio IC50 (Homo sapiens [2]): 250
IC50 [3]: 40 nM
Compound: O=C(Cc1ccccc1)C(Cc1ccc(C(F)(F)P(=O)(O)O)cc1)(Cc1ccc(C(F)(F)P(=O)(O)O)cc1)C(=O)Cc1ccccc1

Ratio IC50 (Homo sapiens [2]): 250
IC50 [3]: 40 nM
Compound: CC(C)OC(=O)C(Cc1ccc(C(F)(F)P(=O)(O)O)cc1)(Cc1ccc(C(F)(F)P(=O)(O)O)cc1)C(=O)OC(C)C

IC50 [1]: 23 nM
Compound: O=P(O)(O)C(F)(F)c1ccc(C[C@](/C=C/c2ccccc2)(c2nc3ccccc3s2)n2nnc3ccccc32)cc1

IC50 [8]: 40 nM
Compound: O=C(O)CNC(=O)c1ccc(N2C(=O)/C(=C/c3cn(-c4ccccc4)nc3-c3cccc(F)c3)SC2=S)cc1

IC50 [13]: > 50000 nM
IC50 [3]: 6 nM
Compound: CC(C)OC(=O)c1cc(CC(Cc2ccc(C(F)(F)P(=O)(O)O)cc2)(C(=O)c2ccccc2)c2ccccc2)ccc1C(F)(F)P(=O)(O)O (stereo not drawn)

IC50 [12]: 500 nM
Compound: O=C(c1ccc(CN(Cc2ccc(C(=O)C(F)(F)P(=O)(O)O)cc2)S(=O)(=O)c2cc(F)ccc2F)cc1)C(F)(F)P(=O)(O)O

IC50 [12]: 500 nM
Compound: O=C(c1ccc(CN(Cc2ccc(C(=O)C(F)(F)P(=O)(O)O)cc2)S(=O)(=O)c2ccc(Br)cc2OC(F)(F)F)cc1)C(F)(F)P(=O)(O)O

IC50 [12]: 500 nM
Compound: Cc1ccc(S(=O)(=O)N(Cc2ccc(C(=O)C(F)(F)P(=O)(O)O)cc2)Cc2ccc(C(=O)C(F)(F)P(=O)(O)O)cc2)cc1

IC50 [4]: 300 nM
Compound: C/C(=C\Cn1oc(=O)[nH]c1=O)c1cccc(OCc2nc(-c3ccc(C(F)(F)F)cc3)oc2-c2ccccc2)c1

IC50 [1]: 16 nM
Compound: O=P(O)(O)C(F)(F)c1ccc(C[C@@](c2ccccc2)(c2ccc(C(F)(F)P(=O)(O)O)cc2)n2nnc3ccccc32)cc1

The remaining lines, values behind:

Compound: O=[N+]([O-])c1cc(S(=O)(=O)C(F)(F)F)ccc1Oc1ccc(S(=O)(=O)c2ccc(Oc3ccc(S(=O)(=O)C(F)(F)F)cc3[N+](=O)[O-])cc2)cc1
IC50 [4]: 400 nM

Compound: CCCCCCCCCCCCCCOc1ccccc1NC(=O)c1c(C(=O)O)cc(Cl)c(Cl)c1Cl
IC50 [4]: 180 nM

Compound: O=c1c(/C=C/c2ccc(O)cc2)nc2ccc(F)cc2n1-c1cnn(O)c1
IC50 [5]: 107 nM

Compound: COc1ccc2cc(O)c(N3CC(=O)NS3(=O)=O)cc2c1
IC50 [6]: 80 nM

Compound: CCc1cc(CC(NC(C)=O)C(=O)NCCCCC(=O)N[C@@H](CCSC)C(=O)O)ccc1N(C(=O)C(=O)O)c1ccccc1C(=O)O (stereo partly drawn)
IC50 [4]: 77 nM

Compound: COc1cccc2c1C=CC1CC(=O)N(/C=C/CC(=O)O)N=C21 (stereo not drawn)
IC50 [7]: 3900 nM

Compound: C/C(=N\NC(=S)Nc1cccc(Br)c1)c1ccc2c(c1)NC(=O)CO2
IC50 [8]: 520 nM

Compound: COC(=O)c1c(O)cccc1OC/C=C/c1cccc(-c2onc(C(=O)O)c2N)c1
Ki [9]: 2100 nM
Ratio Ki (Homo sapiens [10]): 20

Compound: CC(C(=O)O)N1C(=O)C(=O)N(Cc2cccc([N+](=O)[O-])c2)C1=O (stereo not drawn)
IC50 [11]: 2000 nM

Compound: CCCCCCCC/C(=C\Cn1oc(=O)[nH]c1=O)c1cccc(OCc2nc(-c3ccc(C(F)(F)F)cc3)oc2C)c1
IC50 [4]: 400 nM

Compound: O=C1C(=O)N(C2(C(=O)O)CCCCC2)C(=O)N1Cc1ccc(Cl)cc1Cl
IC50 [11]: 50 nM

Compound: CCCCCCCCCCCCCCCCOc1ccccc1NC(=O)c1ncccc1C(=O)O
IC50 [4]: 140 nM

Compound: CCc1cc(CC(NC(C)=O)C(=O)NCCCCOc2cc(Cl)cc(O)c2C(=O)OC)ccc1N(C(=O)C(=O)O)c1ccccc1C(=O)O (stereo not drawn)
Ratio Ki (Homo sapiens [10]): 6

Compound: O=C(O)CCCCCO/N=C(\c1ccnnc1)c1cccc(C(F)(F)F)c1
IC50 [7]: 10000 nM

Compound: CC(C)(C)OC(=O)COc1ccc(CC2=C(c3c[nH]c4ccccc34)c3ccccc3C(=O)C2=O)cc1
IC50 [4]: 650 nM

Compound: O=C1CN(c2ccc(-c3ccc[nH]3)cc2O)S(=O)(=O)N1
IC50 [6]: 80 nM

Compound: O=C(O)CCCCO/N=C(\c1cccc(C(F)(F)F)c1)c1ccncn1
IC50 [7]: 12000 nM

Compound: COC(=O)c1c(O)cccc1OC/C=C/c1ccc(F)c(-c2cc(C(=O)O)no2)c1
Ki [9]: 6900 nM
Ratio Ki (Homo sapiens [10]): 20

Compound: O=[N+]([O-])c1ccccc1Sc1ccc(O)cc1
IC50 [7]: 580 nM

Compound: C/C(=N\NC(=S)Nc1cccc(F)c1)c1ccc2c(c1)NC(=O)CO2
IC50 [8]: 190 nM

Compound: O=C(O)C(=O)Nc1sc2c(c1C(=O)O)CCN(CCc1ccccc1)C2
Ratio Ki (Homo sapiens [10]): 2

Compound: CCCCCCCC/C(=C/Cn1oc(=O)[nH]c1=O)c1cccc(OCc2nc(-c3ccc(C(F)(F)F)cc3)oc2C)c1
IC50 [4]: 200 nM

Compound: COC(=O)c1c(O)cccc1OC/C=C/c1cccc(-c2onc(C(=O)O)c2CO)c1
Ki [9]: 920 nM
Ratio Ki (Homo sapiens [10]): 20

Compound: O=C(O)C(=O)c1sc2c(c1C(=O)O)CCN[C@@H]2CNCc1ccc(O)cc1
IC50 [4]: 200 nM

Compound: CS(=O)(=O)Oc1c(Cl)cccc1Cc1ccc(N2CC(=O)NS2(=O)=O)c(O)c1
IC50 [6]: 80 nM

Compound: Oc1c(Br)cc(-c2ncc(-c3ccccc3)s2)c(Br)c1O
IC50 [4]: 540 nM

Compound: CCCCCNC(=O)[C@H](Cc1cccc(OCC(=O)O)c1C(=O)O)NC(=O)[C@H](Cc1ccccc1)NC(=O)Oc1ccccc1
IC50 [4]: 870 nM

Compound: O=C1CN(c2c(O)cc(CC3CCCCC3)cc2F)S(=O)(=O)N1
IC50 [6]: 80 nM

Compound: COc1cccc2c1C=CC1CC(=O)N(C/C=C/C(=O)O)N=C21 (stereo not drawn)
IC50 [7]: 4250 nM

Compound: CCCCCCCC/C(=C\Cn1oc(=O)n(CC(=O)O)c1=O)c1cccc(OCc2nc(-c3ccc(C(F)(F)F)cc3)oc2C)c1
IC50 [4]: 160 nM

Compound: CCCCCCCC/C(=C/Cn1oc(=O)n(CC(=O)O)c1=O)c1cccc(OCc2nc(-c3ccc(C(F)(F)F)cc3)oc2C)c1
IC50 [4]: 120 nM

Compound: CCCCCCCCCCCCCCOc1ccccc1NC(=O)c1cccc(F)c1C(=O)O
IC50 [4]: 106 nM

Compound: CC(C(=O)O)N1C(=O)C(=O)N(Cc2ccc(Cl)c(Cl)c2)C1=O (stereo not drawn)
IC50 [11]: 75 nM
